Measurements as given in paper PMC6030077, “Dual role of HDAC10 in lysosomal exocytosis and DNA repair promotes neuroblastoma chemoresistance” (Scientific Reports, 2018).

Assays:
[1] = test system: proliferating human fibroblasts; assay: Cell viability, automated trypan blue exclusion, fibroblasts; type: cell-based; conditions: 7.5 µM tubastatin A
Method: Adherent cell lines were trypsinized and cells were pooled with corresponding supernatant, centrifuged and resuspended in 1.5 ml cell culture media. Cell viability was measured by automated trypan blue staining with the Vi-Cell XR Cell Viability Analyzer from Beckman Coulter (Krefeld, Germany).

[2] = test system: proliferating human fibroblasts; assay: Flow cytometric analysis of cellular doxorubicin fluorescence, fibroblasts; type: cell-based; conditions: 100 ng/ml doxorubicin 48 h; tubastatin A 7.5 µM, vacuolin-1 10 µM, verapamil 10 µM
SK-N-AS cells = assay: Flow cytometric quantification of intracellular doxorubicin accumulation, SK-N-AS; type: cell-based, human; conditions: 100 ng/ml doxorubicin +/− 7.5 µM tubastatin A, 48 h
Method: For flow cytometric quantification of intracellular doxorubicin after HDAC6/10 inhibition, BE(2)-C, SK-N-AS, IMR-32, HAP1 wild type and HDAC10 knockout cells were seeded in 6-well dishes at a density of 1.5 ∗ 10^5 cells/well (BE(2)-C and SK-N-AS, HAP1) and 3 ∗ 10^5 cells/well (IMR-32). Cells were treated with 25 ng/ml, 50 ng/ml, 100 ng/ml or 1 µg/ml doxorubicin, respectively, for 3–48 h (see respective figure legend). Where indicated, cells were co-treated with HDAC6/10 or lysosomal inhibitors. In case of co-treatment with vacuolin-1, vacuolin-1 was directly added to cells under doxorubicin treatment 1 h or 24 h prior to analysis. Flow cytometric quantification of intracellular doxorubicin after HDAC6, HDAC10 or P-glycoprotein knockdown in BE(2)-C cells was performed 5 days (P-glycoprotein) or 6 days (HDAC6/10) after transfection with siRNA. To that end, cells were seeded 3–4 days after transfection into 6-well dishes at 1.5 ∗ 10^5 cells per well and treated with 100 ng/ml doxorubicin +/− HDAC6/10 and lysosomal inhibitors for the last 24 h. After doxorubicin treatment, BE(2)-C, SK-N-AS, IMR-32 and HAP1 cells were washed with ice-cold RPMI w/o phenol-red and detached using Trypsin/EDTA for 3 minutes at 37 °C. Cells were centrifuged, resuspended in RPMI w/o phenol red and doxorubicin fluorescence was quantified on a BD FACSCanto II platform using the PE filter setting.

BE(2)-C cells = assay: Confocal fluorescence microscopy of doxorubicin-loaded damaged nuclei; type: cell-based, human; conditions: 250 ng/ml doxorubicin + 7.5 µM tubastatin A, 24 h
Method: BE(2)-C cells were seeded at a density of 2 ∗ 10^4 cells per well into an ibidi 8-well µ-slide one day before treatment. For analysis of doxorubicin uptake, cells were treated with 250 ng/ml doxorubicin +/− HDAC6/10 or lysosomal inhibitors for 24 h. The next day, cells were washed in PBS, fixed for 20 minutes using 4% PFA at room temperature, washed twice with PBS and counterstained with DAPI (4′,6-Diamidino-2-phenylindole). In case of LysoTracker® Red staining, cells were treated for 24 h with HDAC6/10 inhibitors. One hour before fixation, LysoTracker® Red was added at a final concentration of 50 nM and cells were stained for 1 h under standard cell culture conditions. Cells were washed as described, fixed for 15 minutes using 4% PFA at room temperature and counterstained as described above. […] Cells were fixed for 15 minutes using 4% PFA, permeabilized for 30 minutes with 0.2% Triton X-100 and blocked in 0.05% Triton X-100 and 3% BSA in PBS for 1 h at room temperature. Cells were stained with Phospho-Histone H2A.X (S139) primary antibody (CST #9718) over night (4 °C) and for 2 h with Alexa-488-labeled secondary antibody (ThermoFisher A-11008) at room temperature. Nuclei were counterstained with DAPI. Images were acquired on a Zeiss LSM710 (Oberkochen, Germany) laser scanning confocal microscope using the 40× objective.

HDAC10 = biological target: T1, HDAC10 (Homo sapiens, UniProt Q969S8); assay: In-cell target engagement (NanoBRET) assay, NanoLuc-HDAC10; type: binding
T1 construct: NanoLuc®-HDAC10 FL Fusion Vector; host or cells: HeLa cells, stably transfected
T1 sequence (Q969S8 1-669): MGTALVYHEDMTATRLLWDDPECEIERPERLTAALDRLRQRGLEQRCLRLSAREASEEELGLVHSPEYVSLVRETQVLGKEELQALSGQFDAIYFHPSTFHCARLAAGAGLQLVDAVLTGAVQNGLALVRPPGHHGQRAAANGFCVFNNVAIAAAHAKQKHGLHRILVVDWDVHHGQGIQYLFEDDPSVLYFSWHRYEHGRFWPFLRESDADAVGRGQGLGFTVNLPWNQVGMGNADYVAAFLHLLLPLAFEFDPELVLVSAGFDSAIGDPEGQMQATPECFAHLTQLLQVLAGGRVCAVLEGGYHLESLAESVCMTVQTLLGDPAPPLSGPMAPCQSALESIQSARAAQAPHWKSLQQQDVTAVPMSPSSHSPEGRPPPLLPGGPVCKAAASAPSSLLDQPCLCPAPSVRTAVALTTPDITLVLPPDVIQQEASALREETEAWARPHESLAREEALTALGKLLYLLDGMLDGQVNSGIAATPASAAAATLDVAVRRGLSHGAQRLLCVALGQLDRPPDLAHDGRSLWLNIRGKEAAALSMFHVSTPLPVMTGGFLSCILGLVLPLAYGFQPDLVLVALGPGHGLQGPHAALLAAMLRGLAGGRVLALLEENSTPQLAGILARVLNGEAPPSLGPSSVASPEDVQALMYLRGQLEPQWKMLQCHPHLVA
Text: We next investigated if accumulation of lysosomes was also affected by inhibition of HDAC6 and HDAC10, respectively. […] Since no bona fide downstream target protein of HDAC10 has been described to date, we performed an in-cell target engagement (NanoBRET) assay that measures competitive displacement of a fluorescently-labeled tracer from NanoLuc® Luciferase coupled HDAC10 enzyme. […] To exclude that lysosomal accumulation after treatment with HDAC6/10 inhibitors was caused by off-target inhibition of class I HDACs, we treated BE(2)-C cells with 1 mM class I HDAC inhibitor valproic acid (VPA).
HeLa cells, stabily transfected with NanoBRET plasmids NanoLuc®-HDAC6 FL Fusion Vector and NanoLuc®-HDAC10 FL Fusion Vector (Promega, Madison, WI, USA) were seeded at 20.000 cells/well in white 96 well plates. Without further incubation, tracer (0.3 µM) and drugs were added in separate steps and plates were placed in a tissue culture incubator for 2 h. For NanoBRET quantification, plates were put at room temperature for 10 minutes. Nanoglow substrate, diluted in OptiMEM without phenol red, was added and measured within 10 minutes in an OPTIMA plate reader (460 nm emission for donor and 610LP filter for acceptor). The BRET signal was calculated by the ratio of acceptor signal and donor signal.

affinity towards HDAC10 (NanoBRET tracer displacement) (HDAC10): strong affinity towards HDAC10
SMILES: CN1CCc2c(c3ccccc3n2Cc2ccc(C(=O)NO)cc2)C1 [tubastatin A]
cell death in proliferating fibroblasts, combination with 100 ng/ml doxorubicin, 24 h or 48 h [1]: did not induce significant cell death | intracellular doxorubicin in fibroblasts [2]: did not exhibit strongly increased intracellular doxorubicin | doxorubicin accumulation, SK-N-AS (SK-N-AS cells): increased accumulation of doxorubicin | dying cells with highly condensed chromatin, combination with doxorubicin compared to doxorubicin alone (BE(2)-C cells): increased the number of dying cells
